Consider one compound from patent US8580762B2, “Substituted purine and 7-deazapurine compounds” (Epizyme, Inc., priority 2010, dated 2013).

In general, IC50 refers to the concentration at which inhibition is half-maximal. The Cmax is the maximum level reached in the sampled fluid or tissue.

In one data set the test system is HL-60. The data set is described as follows: In vitro anti-proliferative assay, HL-60. In kind it is cell-based, human. Conditions: HL-60, non-MLL-rearranged; up to 14 days. As to the method:
(§1) In Vitro Anti-Proliferative Assay. The potency and selectivity of the anti-proliferative activity of the compounds of the present invention were assessed using a panel of MLL-rearranged and non-MLL-rearranged human leukemia cell lines. The MLL-rearranged panel included cell lines derived from ALL, AML and biphenotypic leukemias harboring MLL-AF4, MLL-AF9 or MLL-ENL fusions. These cell lines recruit DOT1L. […] Exponentially growing cells were plated, in triplicate, in 96-well plates at a density of 3×10^4 cells/well in a final volume of 150 μl. […] Anti-proliferative activity was determined by cell viability measurements every 3-4 days for up to 14 days.

Data set [1] relates to EOL-1 cells which express an MLL-PTD. Nature of the data set: In vitro anti-proliferative assay, EOL-1. It counts as cell-based. Conditions: Homo sapiens, EOL1, 336 h; EOL-1, MLL-PTD; up to 14 days. As to the method:
as §1

The subject of the next data set is MV4-11 xenograft tumors. Nature of the data set: In vivo anti-proliferative assay, mouse xenograft model of MLL-rearranged leukemia. Conditions: 21 days; for TGI compared to controls: non-statistically significant. The arrangement: species or system female nude mice. As to the method:
(§2) In Vivo Anti-Proliferative Assay. The in vivo anti-tumor activity of the compounds of the present invention were assessed in a mouse xenograft model of MLL-rearranged leukemia. Four groups of 20 (Groups 1, 3, 4 and 5), and one group of 8 (Group 2) female nude mice (average weight of 0.023 kg) bearing MV4-11 xenograft tumors of sizes ranging from 80-120 mm^3 were implanted subcutaneously with minipumps (Alzet Model 2001). Group 1 received vehicle only from the pump. Group 2 received vehicle only from the pump plus ip injections tid (8 hours apart) of vehicle. […] Pumps were designed to last for 7 days and were exchanged twice to give total infusion duration of 21 days exposure. […] Tumor size was measured every 4 days. After 21 days the study was terminated, and mean TGI calculated.

Data set [2] in a line: Plasma levels of Compound 2 in the xenograft study. In kind it is in vivo, female nude mice. Conditions: female, nude, mouse; for concentration at 21 day: subcutaneous, read-out: average plasma level from the last sampling on day 21. As to the method: as §2, with “Four” for “In Vivo Anti-Proliferative Assay. The in vivo anti-tumor activity of the compounds of the present invention were assessed in a mouse xenograft model of MLL-rearranged leukemia. Four”

A further data set concerns Jurkat. The data set is described as follows: In vitro anti-proliferative assay, Jurkat. It counts as cell-based, human. Conditions: non-MLL-rearranged, up to 14 days. As for the experimental part:
as §1

Where two headings read alike, the source gives them in different places. Where only a bound is given, the exact number is not on record here.

For the compound `CC(C)N(C[C@H]1O[C@@H](n2cnc3c(N)ncnc32)[C@H](O)[C@@H]1O)[C@H]1C[C@@H](CCc2nc3cc(C(C)(C)C)ccc3[nH]2)C1` [Compound 2, (2R,3R,4S,5R)-2-(6-amino-9H-purin-9-yl)-5-((((1r,3S)-3-(2-(5-(tert-butyl)-1H-benzo[d]imidazol-2-yl)ethyl)cyclobutyl)(isopropyl)amino)methyl)tetrahydrofuran-3,4-diol], the anti-proliferative activity result with HL-60 and with Jurkat was “no activity” each time. Also, the IC50 in data set [1] was found to be 11 nM. For the same compound, the “TGI compared to controls” value with MV4-11 xenograft tumors (56 mg/kg/day minipump (Group 5)) is 43%; with MV4-11 xenograft tumors (112 mg/kg/day minipump (Group 4)), 38%. Besides, the “TGI compared to the controls” value with MV4-11 xenograft tumors (Group 3: 112 mg/kg/day minipump plus ip 20 mg/kg tid, total 172 mg/kg/day, statistically significant) is recorded as above 70%. In data set [2] (Group 3, ip 20 mg/kg tid plus 112 mg/kg/day minipump, read-out: Cmax after each of the tid ip injections), the Cmax fell in the range of 4200 to 5000 ng/mL. Further, the concentration at 21 day is 99 ng/mL in data set [2] (Group 4, 112 mg/kg/day minipump) and 52 ng/mL in data set [2] (Group 5, 56 mg/kg/day minipump).
